Data from patent US11497734B2, “Dual inhibitors of TIM-3 and PD-1 pathways” (Aurigene Discovery Technologies Limited, priority 2017, dated 2022).

Assays:
recombinant human TIM-3 = assay: Human PBMC IFN-γ release assay in the presence of recombinant TIM-3; type: cell-based; details: 100 nM compound, plate-coated TIM-3 + anti-CD3, anti-CD28, 72 h
Method: Vehicle: Milli Q water; RPMI 1640 (GIBCO, Cat #11875); Fetal Bovine Serum [Hyclone, Cat #SH30071.03]; Penicillin (10000 unit/ml)-Streptomycin (10,000 μg/ml) liquid (GIBCO, Cat #15140-122); MEM Sodium Pyruvate solution 100 mM (100×). Liquid (GIBCO, Cat #11360); Nonessential amino acid (GIBCO, Cat #11140); L-Glutamine (GIBCO, Cat #25030); Recombinant human TIM-3 (rhGi24 TIM-3/B7-H5 Fc chimera (R&D systems, cat no: 7126-B7); Anti-h/m Gi24/TIM-3/B7-H5 purified mouse monoclonal IgG2B (R&D systems, cat no: MAB7126); Mouse IgG2B isotype control (R&D Systems cat no: MAB 004); Anti human-CD3 antibody (eBiosciences—16-0039); Anti human-CD28 antibody (eBiosciences—16-0289); Histopaque (density-1.077 gm/ml) (SIGMA 1077); Trypan Blue solution (SIGMA-T8154); Hemacytometer (Bright line-SIGMA Z359629); FACS Buffer containing Phosphate Buffered Saline (PBS) pH 7.2; (HiMedia TS1006) with 0.1% Bovine Serum Albumin (BSA) (SIGMA A7050) and sodium azide (SIGMA 08591); 96-well format ELISA plates (Corning 3599); 96-well format ELISA plates (Corning 3361); BD FACS caliber (E6016); Centrifuge (Eppendorf 5810 R); Human IFN-'γ Duo set ELISA kit (R&D Systems; cat no: DY-285).
Human PBMC IFN-γ Release Assay
96-well cell culture plates were pre-coated with recombinant human TIM-3 (2.5 μg/ml) and anti-human CD3 (2.5 μg/ml), and stored at 4° C. overnight. Anti-human TIM-3 and isotype control antibodies were either coated along with the TIM-3 or incubated for 30 min next day before addition of cells. On the next day, plates were washed with 1× PBS and then incubated with test compounds for 30 min. Isolated PBMC (0.1×10^6 cells/well) and anti-human CD28 antibodies (1 μg/ml) were added to the wells. The culture was further incubated for 72 h at 37° C. with 5% CO2. After 72 h of incubation the cell culture supernatants were collected after brief centrifugation at 200 g×5 min at 4° C. and processed for human IFN-γ measurement by ELISA following manufacturer's protocol (R&D Systems; DY-285).
In brief, 96-well ELISA plates were coated with 100 μl/well of capture antibody in coating buffer and incubated overnight at 4° C. Plates were washed five times with wash buffer and further blocked with 200 μl of 1× assay diluents for 1 hr at RT. Following wash step, 100 μl of cell culture supernatants were added to wells and further incubated for 2 hr at RT. Appropriate standards were also included. After wash step, plate was incubated for one hour with 100 μl/well of detection antibody. The wash step was repeated and the plate was incubated for 30 min with 100 μl/well of Avidin-HRP. The plate was washed four times with wash buffer and subsequently incubated for 15 min with 100 μl/well of substrate solution. 50 μl of stop solution was added to each well and the plate was read at 450 nm using Gen5 ver 2.05. Delta OD values were used for calculating the concentrations. The absorbance values were plotted against the standards and the concentration of IFN-γ was determined using GraphPad Prism software. Each experimental condition was carried out in triplicates.
The percent rescue of IFN-γ release of the selected compounds of present invention are set forth below wherein “A” refers to compounds having more than 70% rescue of IFN-γ release, “B” refers to compounds having rescue of IFN-γ release ranges from 50% to 69.9% and “C” refers to compounds having less than 50% rescue of IFN-γ release.

PD-L1 = biological target: T1, PD-L1 (Mus musculus, UniProt Q9EP73); assay: Rescue of mouse splenocyte proliferation in the presence of recombinant PD-L1 (CFSE proliferation assay); type: cell-based; details: 100 nM compound; anti-CD3/CD28 stimulated mouse splenocytes + PD-L1; 72 h; read-out: PDL1 (rescue of proliferation @ 100 nM)
T1 construct: Fc (Fc chimera); purchased R&D Systems 1019-B7-100
Method: Example 1: Rescue of Mouse Splenocyte Proliferation in the Presence of Recombinant PD-L1/PD-L2
Recombinant mouse PD-L1 (rm-PDL-1, cat no: 1019-B7-100; R&D Systems) were used as the source of PD-L1.
Mouse splenocytes harvested from 6-8 weeks old C57 BL6 mice; RPMI 1640 (GIBCO, Cat #11875); DMEM with high glucose (GIBCO, Cat #D6429); Fetal Bovine Serum [Hyclone, Cat #SH30071.03]; Penicillin (10000 unit/mL)-Streptomycin (10,000 μg/mL) Liquid (GIBCO, Cat #15140-122); MEM Sodium Pyruvate solution 100 mM (100×)), Liquid (GIBCO, Cat #11360); Nonessential amino acid (GIBCO, Cat #11140); L-Glutamine (GIBCO, Cat #25030); Anti-CD3 antibody (eBiosciences—16-0032); Anti-CD28 antibody (eBiosciences—16-0281); ACK lysis buffer (1 mL) (GIBCO, Cat #-A10492); Histopaque (density—1.083 gm/mL) (SIGMA 10831); Trypan blue solution (SIGMA-T8154); 2 mL Norm Ject Luer Lock syringe-(Sigma 2014-12); 40 μm nylon cell strainer (BD FALCON 35230); Hemacytometer (Bright line-SIGMA Z359629); FACS Buffer (PBS/0.1% BSA): Phosphate Buffered Saline (PBS) pH 7.2 (HiMedia TS1006) with 0.1% Bovine Serum Albumin (BSA) (SIGMA A7050) and sodium azide (SIGMA 08591); 5 mM stock solution of CFSE: CFSE stock solution was prepared by diluting lyophilized CFSE with 180 μL of Dimethyl sulfoxide (DMSO C2H6SO, SIGMA-D-5879) and aliquoted in to tubes for further use. Working concentrations were titrated from 10 μM to 1 μM. (eBioscience-650850-85); 0.05% Trypsin and 0.02% EDTA (SIGMA 59417C); 96-well format ELISA plates (Corning CLS3390); BD FACS caliber (E6016); Recombinant mouse B7-H1/PDL1 Fc Chimera, (rm-PD-L1 cat no: 1019-B7-100).
Splenocytes harvested in a 50 mL falcon tube by mashing mouse spleen in a 40 μm cell strainer were further treated with 1 mL ACK lysis buffer for 5 min at room temperature. After washing with 9 mL of RPMI complete media, cells were re-suspended in 3 mL of 1×PBS in a 15 mL tube. 3 mL of Histopaque was added carefully to the bottom of the tube without disturbing overlaying splenocyte suspension. After centrifuging at 800×g for 20 min at room temperature, the opaque layer of splenocytes was collected carefully without disturbing/mixing the layers. Splenocytes were washed twice with cold 1×PBS followed by total cell counting using Trypan Blue exclusion method and used further for cell based assays.
Splenocytes were cultured in RPMI complete media (RPMI+10% fetal bovine serum+1 mM sodium pyruvate+10,000 units/mL penicillin and 10,000 μg/mL streptomycin) and maintained in a CO2 incubator with 5% CO2 at 37° C.
CFSE Proliferation Assay: CFSE is a dye that passively diffuses into cells and hinds to intracellular proteins. 1×10^6 cells/mL of harvested splenocytes were treated with 5 μM of CFSE in pre-warmed 1×PBS/0.1% BSA solution for 10 min at 37° C. Excess CFSE was quenched using 5 volumes of ice-cold culture media to the cells and incubated on ice for 5 min. CFSE labeled splenocytes were further given three washes with ice cold complete RPMI media. CFSE labeled 1×10^5 splenocytes added to wells containing either MDA-MB231 cells (1×10^5 cells cultured in high glucose DMEM medium) or recombinant human PDL-1 (100 ng/mL) and test compounds. Splenocytes were stimulated with anti-mouse CD3 and anti-mouse CD28 antibody (1 μg/mL each), and the culture was further incubated for 72 h at 37° C. with 5% CO2. Cells were harvested and washed thrice with ice cold FACS buffer and % proliferation was analysed by flow cytometry with 488 nm excitation and 521 nm emission filters. Data Compilation, Processing and Inference: […]

T1 sequence (Q9EP73 19-238 limits assumed): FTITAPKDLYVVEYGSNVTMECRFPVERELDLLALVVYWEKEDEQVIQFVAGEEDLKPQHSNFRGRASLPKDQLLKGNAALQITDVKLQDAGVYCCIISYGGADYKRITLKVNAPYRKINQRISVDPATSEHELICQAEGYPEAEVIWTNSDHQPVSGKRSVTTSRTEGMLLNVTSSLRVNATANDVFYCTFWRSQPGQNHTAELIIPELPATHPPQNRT

SMILES	TIM-3 (rescue of IFN γ release @ 100 nM) (recombinant human TIM-3)	activity at 0.1 µM (PD-L1)
CC(O)[C@H](NC(=O)N[C@@H](CCC(=O)O)c1nc([C@@H](N)CO)no1)C(=O)O (stereo partly shown) [Compound 5]	A (more than 70% rescue of IFN-γ release)	88%
CCC(C)[C@H](NC(=O)N[C@@H](CC(N)=O)c1nc([C@@H](N)CO)no1)C(=O)O (stereo partly shown) [Compound 2]	A (more than 70% rescue of IFN-γ release)	73%
CC(O)[C@H](NC(=O)N[C@@H](CC(N)=O)c1nc(C2COCCN2)no1)C(=O)O (stereo partly shown) [Compound 16]	B (rescue of IFN-γ release ranges from 50% to 69.9%)	92%
COC(C)[C@H](NC(=O)N[C@@H](CC(N)=O)c1nc([C@@H](N)CO)no1)C(=O)O (stereo partly shown) [Compound 14]	C (less than 50% rescue of IFN-γ release)	84%
CC(O)[C@H](NC(=O)N[C@@H](CC(N)=O)c1nc([C@@H](O)CO)no1)C(=O)O (stereo partly shown) [Compound 24]	A (more than 70% rescue of IFN-γ release)	65%
